From US20190367516A1 (Bayer Pharma Aktiengesellschaft, priority 2015, published 2019)
pEC50: −log10 of the molar value. Read-outs that look alike come from different tables or passages of the source.

Target: T1, human M2 receptor (Homo sapiens, UniProt P08172)
T1 sequence (P08172 1-466): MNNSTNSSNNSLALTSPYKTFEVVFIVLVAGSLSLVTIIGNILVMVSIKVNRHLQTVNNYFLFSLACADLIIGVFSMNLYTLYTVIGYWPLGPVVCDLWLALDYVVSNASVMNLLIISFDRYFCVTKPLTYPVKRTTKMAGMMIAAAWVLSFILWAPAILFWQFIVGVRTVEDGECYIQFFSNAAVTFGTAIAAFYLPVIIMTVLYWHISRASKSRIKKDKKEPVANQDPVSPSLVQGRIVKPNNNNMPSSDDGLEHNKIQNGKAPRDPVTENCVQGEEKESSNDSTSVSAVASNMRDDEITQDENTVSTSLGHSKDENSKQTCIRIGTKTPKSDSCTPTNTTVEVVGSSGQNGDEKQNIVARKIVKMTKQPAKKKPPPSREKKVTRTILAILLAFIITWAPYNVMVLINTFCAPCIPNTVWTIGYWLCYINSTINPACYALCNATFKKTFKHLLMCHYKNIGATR
Conditions: for Emax: read-out: Efficiency, boosting of the acetylcholine effect at EC20 acetylcholine concentration; for Efficiency: boosting of the acetylcholine effect at EC20 acetylcholine concentration

[1] = Receptor activity EC50, allosteric potency at EC20 acetylcholine, M2-GIRK1/4 reporter cells, in some cases mean of two or more determinations
[2] = Receptor activity EC50, M2-GIRK1/4 activation test, acetylcholine at EC20, allosteric potency, in some cases mean values from two or more determinations

SMILES	pEC50 [1]	Emax (M2-GIRK1/4 reporter cells) [%]	pEC50 [2]	Efficiency (M2-GIRK1/4 reporter cells) [%]
O=C(NC(c1c(F)cccc1F)C(F)(F)F)c1cn(-c2ccc(F)cc2F)c2nc(N3CCCC(O)C3=O)ccc2c1=O (single isomer, unassigned) [Example 251, 1-(2,4-Difluorophenyl)-N-[1-(2,6-difluorophenyl)-2,2,2-trifluoroethyl]-7-[3-hydroxy-2-oxopiperidin-1-yl]-4-oxo-1,4-dihydro-1,8-naphthyridine-3-carboxamide]	–	–	6.79	–
CCC(NC(=O)c1cn(-c2ccc(F)cc2F)c2nc(N3CC(CO)C3)ccc2c1=O)C(F)(F)F (racemic) [Example 26, rac-1-(2,4-Difluorophenyl)-7-[3-(hydroxymethyl)azetidin-1-yl]-4-oxo-N-[1,1,1-trifluorobutan-2-yl]-1,4-dihydro-1,8-naphthyridine-3-carboxamide]	–	–	6.79	–
O=C(NC12CC3CC(CC(C3)C1)C2)c1cn(-c2ccc(F)cc2F)c2nc(NCCF)ccc2c1=O [Example 83, 1-(2,4-Difluorophenyl)-7-[(2-fluoroethyl)amino]-4-oxo-N-(tricyclo[3.3.1.1^3,7]dec-1-yl)-1,4-dihydro-1,8-naphthyridine-3-carboxamide]	–	–	6.96	–
CC[C@@H](NC(=O)c1cn(-c2ccc(F)cc2F)c2nc(N3CCC(O)(O)C(F)C3)ccc2c1=O)C(F)(F)F (mixture of isomers) [Example 34, 1-(2,4-Difluorophenyl)-7-[3-fluoro-4,4-dihydroxypiperidin-1-yl]-4-oxo-N-[(2R)-1,1,1-trifluorobutan-2-yl]-1,4-dihydro-1,8-naphthyridine-3-carboxamide (diastereomer mixture)]	–	–	7.02	–
O=C(NC12CC3CC(CC(C3)C1)C2)c1cn(-c2ccc(F)cc2F)c2nc(N3CCCCC3)ccc2c1=O [Example 8, 1-(2,4-Difluorophenyl)-4-oxo-7-(piperidin-1-yl)-N-(tricyclo[3.3.1.1^3,7]dec-1-yl)-1,4-dihydro-1,8-naphthyridine-3-carboxamide]	–	–	7.42	–
O=C(NC12CC3CC(CC(C3)C1)C2)c1cn(-c2ccc(F)cc2F)c2nc(N3CCCC(CCO)C3)ccc2c1=O (stereo not drawn) [Example 17, 1-(2,4-Difluorophenyl)-7-[3-(2-hydroxyethyl)piperidin-1-yl]-4-oxo-N-(tricyclo[3.3.1.1^3,7]dec-1-yl)-1,4-dihydro-1,8-naphthyridine-3-carboxamide]	–	–	6.80	–
CC[C@@H](NC(=O)c1cn(-c2ccc(F)cc2F)c2nc(N3CC(F)C3)ccc2c1=O)C(F)(F)F [Example 32, 1-(2,4-Difluorophenyl)-7-(3-fluoroazetidin-1-yl)-4-oxo-N-[(2R)-1,1,1-trifluorobutan-2-yl]-1,4-dihydro-1,8-naphthyridine-3-carboxamide]	–	–	6.76	–
O=C(NC1(C(F)(F)F)CCOC1)c1cn(-c2ccc(F)cc2F)c2nc(N3C[C@@H](O)CC3=O)ccc2c1=O (mixture of isomers) [Example 238, 1-(2,4-Difluorophenyl)-7-[(4S)-4-hydroxy-2-oxopyrrolidin-1-yl]-4-oxo-N-[3-(trifluoromethyl)tetrahydrofuran-3-yl]-1,4-dihydro-1,8-naphthyridine-3-carboxamide]	–	–	5.79	–

Results, then the compound that gave them:

pEC50 [1]	Emax (M2-GIRK1/4 reporter cells) [%]	pEC50 [2]	Efficiency (M2-GIRK1/4 reporter cells) [%]	SMILES
8.52	100	–	–	CC(NC(=O)c1cn(-c2c(F)cc(F)cc2F)c2nc(N3C[C@@H](C)NC3=O)ccc2c1=O)C(F)(F)C(F)(F)F (mixture of isomers) [Example 458, 7-[(4R)-4-Methyl-2-oxoimidazolidin-1-yl]-4-oxo-N-[3,3,4,4,4-pentafluorobutan-2-yl]-1-(2,4,6-trifluorophenyl)-1,4-dihydro-1,8-naphthyridine-3-carboxamide]
–	–	7.80	–	CC(C)(CC(F)(F)F)NC(=O)c1cn(-c2c(F)cc(F)cc2F)c2nc(N3CCNC3=O)ccc2c1=O [Example 376, 4-Oxo-7-(2-oxoimidazolidin-11-yl)-N-(4,4,4-trifluoro-2-methylbutan-2-yl)-1-(2,4,6-trifluorophenyl)-1,4-dihydro-1,8-naphthyridine-3-carboxamide]
8.22	100	–	–	CC(C)C[C@@H](NC(=O)c1cn(-c2c(F)cc(F)cc2F)c2nc(N3C[C@@H](O)CC3=O)ccc2c1=O)C(F)(F)F [Example 658, 7-[(4S)-4-Hydroxy-2-oxopyrrolidin-1-yl]-4-oxo-N-[(2R)-1,1,1-trifluoro-4-methylpentan-2-yl]-1-(2,4,6-trifluorophenyl)-1,4-dihydro-1,8-naphthyridine-3-carboxamide]
7.96	–	–	100.0	CC[C@H](NC(=O)c1cn(-c2c(F)cc(F)cc2Cl)c2nc(N3C[C@@H](O)[C@H](O)C3)ccc2c1=O)C(F)(F)F (single isomer, unassigned) [Example 568]
6.33	99.5	–	–	CC[C@H](NC(=O)c1cn(-c2c(F)cc(F)cc2F)c2nc(N3CC(CNC(C)=O)CC3=O)ccc2c1=O)C(F)(F)F (stereo partly drawn) [Example 518, 7-[4-(Acetamidomethyl)-2-oxopyrrolidin-1-yl]-4-oxo-N-[(2S)-1,1,1-trifluorobutan-2-yl]-1-(2,4,6-trifluorophenyl)-1,4-dihydro-1,8-naphthyridine-3-carboxamide]
–	–	–	99.5	O=C(NC(c1ccccc1Cl)C(F)(F)F)c1cn(-c2c(F)cc(F)cc2F)c2nc(N3CCNC3=O)ccc2c1=O (racemic) [Example 565, N-[1-(2-Chlorophenyl)-2,2,2-trifluoroethyl]-4-oxo-7-(2-oxoimidazolidin-1-yl)-1-(2,4,6-trifluorophenyl)-1,4-dihydro-1,8-naphthyridine-3-carboxamide]
6.97	85.5	–	–	CN(C[C@H](O)CO)c1ccc2c(=O)c(C(=O)N[C@@H](C3CC3)C(F)(F)F)cn(-c3c(F)cc(F)cc3F)c2n1 [Example 491]
8.00	99	–	–	CC(C)C[C@H](NC(=O)c1cn(-c2c(F)cc(F)cc2F)c2nc(N3C[C@@H](O)[C@H](O)C3)ccc2c1=O)C(F)(F)F [Example 559, 7-[(3R,4R)-3,4-Dihydroxypyrrolidin-1-yl]-4-oxo-N-[(2S)-1,1,1-trifluoro-4-methylpentan-2-yl]-1-(2,4,6-trifluorophenyl)-1,4-dihydro-1,8-naphthyridine-3-carboxamide]
7.74	98	–	–	CC(NC(=O)c1cn(-c2c(F)cc(F)cc2F)c2nc(N3C[C@@H](O)[C@H](O)C3)ccc2c1=O)C1CCC1 (mixture of isomers) [Example 476, N-[1-Cyclobutylethyl]-7-[(3R,4R)-3,4-dihydroxypyrrolidin-1-yl]-4-oxo-1-(2,4,6-trifluorophenyl)-1,4-dihydro-1,8-naphthyridine-3-carboxamide]
7.77	–	–	90.0	CCC(COC(F)(F)F)NC(=O)c1cn(-c2c(F)cc(F)cc2F)c2nc(N3CCNC3=O)ccc2c1=O (racemic) [Example 611, 4-Oxo-7-(2-oxoimidazolidin-1-yl)-N-[1-(trifluoromethoxy)butan-2-yl]-1-(2,4,6-trifluorophenyl)-1,4-dihydro-1,8-naphthyridine-3-carboxamide]
8.00	–	–	–	O=C(NC(c1ccccc1Cl)C(F)(F)F)c1cn(-c2c(F)cc(F)cc2F)c2nc(N3CCNC3=O)ccc2c1=O (single isomer, unassigned) [Example 565, N-[1-(2-Chlorophenyl)-2,2,2-trifluoroethyl]-4-oxo-7-(2-oxoimidazolidin-1-yl)-1-(2,4,6-trifluorophenyl)-1,4-dihydro-1,8-naphthyridine-3-carboxamide]
